From a melting point compilation (Tetko et al.; mined from patent text by program, amines drawn as free bases though some values may be those of a salt) come the findings set out here.

For the compound `CCCCCCCCCCCCC#CCC(NC(C)=O)(C(=O)OCC)C(=O)OCC`, the melting point (as a rule, the temperature of the solid-liquid transition) fell in the range of 43 to 43.5 °C.
In the case of `CC(C)(C)[Si](C)(C)N1C(=O)C(C(Cc2ccccc2)OC=O)C1SC(c1ccccc1)(c1ccccc1)c1ccccc1` (stereo unspecified) it was 172 to 173 °C; in that of `CC(C)(C)C(=O)Oc1ccc(-c2nnn(CCO)n2)cc1`, 92 to 95 °C; in that of `COC(=O)COc1cccc2c(CNS(=O)(=O)CCOc3ccccc3)coc12`, 83 to 84 °C.
In turn, `CCC(=O)N=C(Nc1c(Cl)cccc1Cl)SC` registered a melting point of 165 to 170 °C.
For the compound `Oc1ccc(-c2nc3cc(O)ccc3o2)c(O)c1`, the melting point was over 300 °C.
In the case of `CCCC(CCC)Nc1nc(C)nc(Oc2c(Br)cc(C(C)(C)O)cc2OC)c1N` it was 114 to 116 °C.
Compound `CC(=O)c1ccc(Oc2ncccc2C(=O)O)cc1` gave a melting point of 184 to 186 °C.
In the case of `COc1ccc(CNc2nnc(Cl)c3cc(Cl)ccc23)cc1Cl` it was 168 to 170 °C.
In the case of `CN1Cc2c(I)ncn2-c2ccc(F)cc2C1=O` it was 187 to 188 °C; in that of `CC(O)CSC(=S)Nc1ccccn1` (stereo unspecified), 78 °C.
The figure for `O=[N+]([O-])c1ccccc1COc1ccc2ncc3c(c2c1)CCCC3` is 153 to 154 °C; for `CSCC[C@H](NC(=O)Cc1cc(F)cc(F)c1)C(=O)N[C@@H]1C(=O)Nc2ccccc2S[C@@H]1c1ccccc1` it is 85 to 90 °C.
The compound `CCOC(=O)Cc1nnc(-c2ccc(OC)cc2)n1-c1ccc(OC)cc1` yielded a melting point of 156 °C.
With `Cc1cccc(C(=O)n2c3c(c4ccccc42)CC(C(=O)O)(C(=O)O)CC3)c1`, the melting point fell in the range of 195 to 200 °C.
The figure for `CC(C)(C)C(=O)Nc1nn(-c2ccc(F)cc2F)c2c1C1CCC2C1` (stereo unspecified) is 136 to 138 °C; for `COC(=O)C(Cl)(Cl)Cc1c(Cl)cc(Cl)cc1Cl` it is 56 to 57 °C.
In the case of `Cc1c2c(c3ccccc3c1NC(=O)CC(C)(C)C)OCC2c1ccc(C(C)C)cc1` (stereo unspecified) it was 183 to 184 °C; in that of `CC(C)(C)C(=O)N[C@H]1CC[C@H](CCN2CCN(c3nccc4c3OCC4)CC2)CC1`, 194 °C; in that of `COC(=O)CCC#Cc1cc(F)cc([N+](=O)[O-])c1`, 111 to 112 °C.
In the case of `CNC(=O)n1c(NC(=O)c2ccc(NC(=N)N)cc2)nc2ccccc21` it was 188 to 190 °C; in that of `CCS(=O)(=O)c1ccc(-c2nc(-c3nc4cc(OC)cc(OC)c4c(=O)[nH]3)ccc2OCCNC(C)C)cc1`, 195 to 197 °C.
The compound `COCCOc1cc(C(O)C#Cc2ccc(C(=O)O)cc2)cc2c1C(C)(C)CCC2(C)C` (stereo unspecified) showed a melting point of 150 °C.
The figure for `COc1cc2c(Nc3ccc(Oc4ccccc4)cc3)c(C#N)cnc2cc1OCCCl` is 148 to 151 °C.
In turn, `Cc1c(-c2ccc(OCc3ccccc3)c(F)c2)[nH]c2ccc(OCc3ccccc3)cc12` showed a melting point of 135 to 137 °C.
In the case of `N#Cc1nn(-c2c(Cl)cc(C(F)(F)F)cc2Cl)c(N)c1-c1cccc(Cl)c1` it was 161 to 162 °C; in that of `C=CCN(c1ncnc2c1ncn2CC(C)O)C1CCCCC1` (stereo unspecified), 108 to 110 °C.
In the case of `O=S(=O)(c1ccccc1)c1ccc2c(c1)O[C@H](CO)CO2` it was 112 to 114 °C.
In the case of `Cn1c(-c2ccccc2)cc2oc(=O)nc(-c3ccccc3)c2c1=O` it was 178 to 179 °C.
`CC1CC2(C)C(CCC3C2CCC2(C)C(OCc4ccccc4)CCC32)CC1=O` (stereo unspecified) displayed a melting point of 116 to 120 °C.
The figure for `COC(=O)NC(CCc1ccccc1)C(=O)OCC(Cl)(Cl)Cl` (stereo unspecified) is 31 to 35 °C.
The figure for `CCCCCCCCCCCCCCCC(=O)NC(C(=O)OC)C(O)CCCCCCCCCCCCCCC` (stereo unspecified) is 80 °C; for `COC(=O)c1ccc(Br)c(S)c1` it is 81 °C; for `OC(c1ccc(Cl)cc1)c1cccnc1-n1ccnc1` (stereo unspecified) it is 133 to 134 °C.
In the case of `OCc1c(CO)c(-c2ccccc2)n2c1Cc1ccccc1-2` it was 169 to 171 °C.
As for `O=C(O)Cc1ccc(C2=CCCCC2)cc1`, the melting point lay in the range of 118 to 120 °C.
The figure for `Nc1nc(N)c(-c2ccc(Cl)cc2Cl)c(CBr)n1` is over 270 °C; for `O=c1c(Cl)c(OCc2ccc(F)cc2F)ccn1Cc1cccc2c1CCNC2` it is 180 to 184 °C.
As to `CCCCC1(CCCC)NC(=O)c2ccccc2N1C`, the melting point is 77 to 78 °C.
In turn, `COc1ccc(N2CCCn3c2nc2c(Cl)ccc(C(OCC(F)(F)F)C4CC4)c23)c(C)n1` (stereo unspecified) returned a melting point of 158 to 160 °C.
Regarding `O=C1COc2cc(NC(=O)C(=O)N3CCC(OCc4ccccc4)CC3)ccc2N1`, the melting point lay within 232 to 236 °C.
The figure for `CCCCC(CC)COC(=O)COc1cc(F)ccc1C(=O)NCc1cccc([N+](=O)[O-])c1` (stereo unspecified) is 59 to 60 °C; for `O=C(O)Cc1ccc(NC(=O)C(COc2ccccc2)NS(=O)(=O)c2ccc(Br)cc2)cc1` (racemic) it is 201 to 204 °C.
In the case of `CC(C)Oc1ccc(-n2c(-c3ccc(C(=O)O)cc3)c(C(=O)O)c3cc(Oc4ccc(C(F)(F)F)cc4)ccc32)cc1` it was 268 to 270 °C; in that of `O=C1NCCN1C1CCN(CC(O)COc2cccnc2Cl)CC1` (stereo unspecified), 163 to 166 °C; in that of `CN1Cc2c(C#CC(C)(C)C)ncn2-c2ccccc2C1=O`, 148 to 150 °C.
In the case of `O=C(/C=C/c1ccccc1I)NCCO` it was 130 to 132 °C.
`CC(C)(C)OC(=O)NC1CSCCNC1=O` (stereo unspecified) yielded a melting point of 200 to 201 °C.
In the case of `Cc1ncn(-c2cc(F)ccc2CNC(=O)c2nc3n(c(=O)c2OCc2ccccc2)CCOC3(C)C)n1`, the melting point was determined as 203 °C.
In the case of `C=C(CCC(C)C1CCC2(O)C3=C(C(=O)CC12C)C1(C)CCC(=O)C(C)C1CC3O)C(C)C(=O)O` (stereo unspecified), the melting point is 175 to 177 °C.
In the case of `CCCCc1nccn1Cc1c(F)cccc1Cl` it was 106 to 108 °C; in that of `COc1ccc(S(=O)(=O)Nc2ccccc2/C=C/c2ccncc2)cc1`, 207 to 209 °C.
In the case of `c1ccc(CN2CCc3[nH]c4c(-c5ccccc5)cccc4c3CC2)cc1` it was 78 to 79 °C; in that of `N#Cc1ccc(-c2cn(-c3ccc(I)cc3)c(SCCO)n2)cc1`, 148 to 172 °C; in that of `Cc1[nH]c2ccc(S(=O)(=O)c3ccc(C(F)(F)F)cc3)cc2c1CCNC(=O)OC(C)(C)C`, 162 to 164 °C.
In the case of `CN(C)CC(=O)Nc1ccc2[nH]c(=O)c3ccccc3c2c1` it was over 300 °C; in that of `CCOC(=O)CC1CC2C(CCC3(C)C(=O)CCC23)c2ccc(O)cc21` (stereo unspecified), 138 °C; in that of `Cc1cc(Br)cnc1CCCCNc1ncc(Cc2ccc(CO)nc2)c(=O)[nH]1`, 61 to 70 °C.
The compound `Cc1cnc2c(NC(=O)c3c(Cl)cccc3Cl)ccc(C)c2c1-n1ccnc1` registered a melting point of 214 to 216 °C.
Turning to `COC(=O)C(C(=O)OC)C(Cc1cc(Cl)ccc1[N+](=O)[O-])c1ccc(OC)cc1` (stereo unspecified), the melting point is 117 to 120 °C.
In the case of `OCC(O)CNc1nc(-c2ccc(Cl)c(Cl)c2)nc2ccccc12` (stereo unspecified) it was 162 to 164 °C.
